Assay results taken from US20250215030A1, “STAT MODULATORS AND USES THEREOF” (Recludix Pharma, Inc., priority 2022, published 2025).

What was measured:
[1] = target: T1, pSTAT6 (pY641-STAT6) (Homo sapiens, UniProt P42226); assay: MSD-pSTAT-PBMC Assay (pSTAT6, IL-4 stimulated); assay type: cell-based; settings: compound 3 hrs, then 1 ng/mL IL-4 for 10 min
T1 construct: host or cells: cryopreserved PBMC
T1 sequence (P42226 1-847): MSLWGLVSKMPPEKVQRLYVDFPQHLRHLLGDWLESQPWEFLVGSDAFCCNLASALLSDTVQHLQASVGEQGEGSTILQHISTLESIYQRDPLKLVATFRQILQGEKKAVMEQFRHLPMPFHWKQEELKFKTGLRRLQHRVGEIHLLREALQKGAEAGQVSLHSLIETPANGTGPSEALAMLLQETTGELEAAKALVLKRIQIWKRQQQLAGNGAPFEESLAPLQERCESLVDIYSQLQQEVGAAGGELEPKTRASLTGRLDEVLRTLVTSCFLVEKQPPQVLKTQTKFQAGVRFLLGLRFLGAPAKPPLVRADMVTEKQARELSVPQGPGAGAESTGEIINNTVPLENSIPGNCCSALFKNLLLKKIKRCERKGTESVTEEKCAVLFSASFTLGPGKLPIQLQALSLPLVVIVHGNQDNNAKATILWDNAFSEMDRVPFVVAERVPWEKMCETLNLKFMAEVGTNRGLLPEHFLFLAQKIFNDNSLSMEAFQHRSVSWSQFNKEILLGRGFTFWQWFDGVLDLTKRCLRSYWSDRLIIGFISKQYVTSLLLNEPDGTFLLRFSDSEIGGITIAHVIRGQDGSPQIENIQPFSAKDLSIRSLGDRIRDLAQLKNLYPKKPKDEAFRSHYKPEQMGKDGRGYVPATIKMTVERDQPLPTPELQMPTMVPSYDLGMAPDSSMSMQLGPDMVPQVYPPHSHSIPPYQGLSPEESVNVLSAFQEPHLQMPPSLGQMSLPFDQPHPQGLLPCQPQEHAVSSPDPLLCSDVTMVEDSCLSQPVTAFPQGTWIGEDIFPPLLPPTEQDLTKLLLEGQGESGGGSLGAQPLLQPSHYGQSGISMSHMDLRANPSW
Method in brief: (§1)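 Human PBMCs (50,000 cells/well for STAT3, 25,000 for STAT6) treated with compound 3 h, then stimulated 10 min with 10 ng/mL IL-6 or 1 ng/mL IL-4. Lysate pSTAT3 (pY705) or pSTAT6 (pY641) measured by MSD sandwich electrochemiluminescence. Signal minus unstimulated, normalized to DMSO; IC50 by variable-slope nonlinear regression.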

[2] = target: T2, pSTAT3 (pY705-STAT3) (Homo sapiens, UniProt P40763); assay: MSD-pSTAT-PBMC Assay (pSTAT3, IL-6 stimulated); assay type: cell-based; settings: PBMC, compound 3 hrs, then 10 ng/mL IL-6 for 10 min; MSD pY705-STAT3; read-out: pSTAT3
T2 construct: host or cells: cryopreserved PBMC
T2 sequence (P40763 whole entry): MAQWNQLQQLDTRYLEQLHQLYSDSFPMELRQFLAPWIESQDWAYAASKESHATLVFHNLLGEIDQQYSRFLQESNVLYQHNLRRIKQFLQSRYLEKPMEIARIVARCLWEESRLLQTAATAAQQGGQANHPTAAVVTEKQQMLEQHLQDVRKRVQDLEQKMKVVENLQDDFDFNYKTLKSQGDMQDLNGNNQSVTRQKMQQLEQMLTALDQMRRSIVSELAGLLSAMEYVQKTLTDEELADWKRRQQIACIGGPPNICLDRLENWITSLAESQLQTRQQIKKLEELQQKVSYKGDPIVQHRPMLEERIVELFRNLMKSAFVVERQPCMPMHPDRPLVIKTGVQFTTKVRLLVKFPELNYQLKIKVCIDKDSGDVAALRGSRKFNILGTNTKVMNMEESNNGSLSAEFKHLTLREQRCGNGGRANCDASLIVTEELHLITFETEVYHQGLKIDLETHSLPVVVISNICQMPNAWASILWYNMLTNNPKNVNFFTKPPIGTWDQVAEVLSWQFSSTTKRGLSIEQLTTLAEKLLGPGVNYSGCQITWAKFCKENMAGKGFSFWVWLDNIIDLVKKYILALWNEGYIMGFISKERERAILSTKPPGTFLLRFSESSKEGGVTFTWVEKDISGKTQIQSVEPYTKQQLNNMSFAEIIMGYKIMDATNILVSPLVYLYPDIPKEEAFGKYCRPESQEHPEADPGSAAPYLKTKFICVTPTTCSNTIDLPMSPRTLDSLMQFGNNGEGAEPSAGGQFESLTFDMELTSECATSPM
Method in brief: as §1

| SMILES | IC50 [1] | IC50 [2] |
| --- | --- | --- |
| CC(C)CC(=O)SCCOP(=O)(Oc1ccccc1)C(F)(F)c1ccc2sc(C(=O)N[C@H]3C[C@@H]4C[C@@H]4C[C@H]4CC[C@@H](C(=O)N5CC(C(=O)N6CCOCC6)C5)N4C3=O)cc2c1 (stereo partly drawn) [Compound 185, S-(2-(((difluoro(2-(((3S,6S,7aS, 8aR,9aR)-3-(3-(morpholine-4-carbonyl)azetidine-1-carbonyl)-5-oxodecahydro-1H-cyclopropa[d]pyrrolo[1,2-a]azocin-6-yl)carbamoyl)benzo[b]thiophen-5-yl)methyl) (phenoxy)phosphoryl)oxy)ethyl) 3-methylbutane thioate] | > 3000 nM | 100 to 1000 nM |
| CC(C)OC(=O)[C@H](C)NP(=O)(Oc1ccccc1)C(F)(F)c1ccc2sc(C(=O)N[C@H]3C[C@@H]4C[C@@H]4C[C@H]4CC[C@@H](C(=O)N5CC(C(=O)N6CCOCC6)C5)N4C3=O)cc2c1 (stereo partly drawn) [Compound 186, isopropyl ((difluoro(2-(((3S,6S,7aS, 8aR,9aR)-3-(3-(morpholine-4-carbonyl)azetidine-1-carbonyl)-5-oxodecahydro-1H-cyclopropa[d]pyrrolo[1,2-a]azocin-6-yl)carbamoyl)benzo[b]thiophen-5-yl)methyl) (phenoxy)phosphoryl)-L-alaninate] | > 3000 nM | > 3000 nM |
| CC(C)CC(=O)SCCOP(=O)(Oc1ccccc1)C(F)(F)c1ccc2sc(C(=O)N[C@H]3C[C@H]4C[C@H]4C[C@H]4CC[C@@H](C(=O)N5CC(c6cccnc6)C5)N4C3=O)cc2c1 (stereo partly drawn) [Compound 193, S-(2-(((difluoro(2-(((3S,6S,7aR, 8aS,9aR)-5-oxo-3-(3-(pyridin-3-yl)azetidine-1-carbonyl)decahydro-1H-cyclopropa[d]pyrrolo[1,2-a]azocin-6-yl)carbamoyl)benzo[b]thiophen-5-yl)methyl) (phenoxy)phosphoryl)oxy)ethyl) 3-methylbutane thioate] | > 3000 nM | < 100 nM |
| CC(C)(C)C(=O)SCCOP(=O)(Oc1ccccc1)C(F)(F)c1ccc2sc(C(=O)N[C@H]3C[C@H]4C[C@H]4C[C@H]4CC[C@@H](C(=O)N5CC(n6ccnc6)C5)N4C3=O)cc2c1 (stereo partly drawn) [Compound 195, S-(2-((((2-(((3S,6S,7aR, 8aS,9aR)-3-(3-(1H-imidazol-1-yl)azetidine-1-carbonyl)-5-oxodecahydro-1H-cyclopropa[d]pyrrolo[1,2-a]azocin-6-yl)carbamoyl)benzo[b]thiophen-5-yl)difluoromethyl) (phenoxy)phosphoryl)oxy)ethyl) 2,2-dimethyl-propanethioate] | > 3000 nM | 100 to 1000 nM |
| CC(C)CC(=O)SCCOP(=O)(Oc1ccccc1)C(F)(F)c1ccc2sc(C(=O)N[C@H]3C[C@H]4C[C@H]4C[C@H]4CC[C@@H](C(=O)N5CC(n6ccnc6)C5)N4C3=O)cc2c1 (stereo partly drawn) [Compound 196, S-(2-((((2-(((3S,6S,7aR, 8aS,9aR)-3-(3-(1H-imidazol-1-yl)azetidine-1-carbonyl)-5-oxodecahydro-1H-cyclopropa[d]pyrrolo[1,2-a]azocin-6-yl)carbamoyl)benzo[b]thiophen-5-yl)difluoromethyl) (phenoxy)phosphoryl)oxy)ethyl) 3-methylbutane thioate] | > 3000 nM | < 100 nM |
| CCCC(=O)SCCOP(=O)(Oc1ccccc1)C(F)(F)c1ccc2sc(C(=O)N[C@H]3C[C@@H]4C[C@@H]4C[C@H]4CC[C@@H](C(=O)N5CC(n6ccnc6)C5)N4C3=O)cc2c1 (stereo partly drawn) [Compound 198, S-(2-((((2-(((3S,6S,7aS, 8aR,9aR)-3-(3-(1H-imidazol-1-yl)azetidine-1-carbonyl)-5-oxodecahydro-1H-cyclopropa[d]pyrrolo[1,2-a]azocin-6-yl)carbamoyl)benzo[b]thiophen-5-yl)difluoromethyl) (phenoxy)phosphoryl)oxy)ethyl) butanethioate] | 1000 to 3000 nM | < 100 nM |

The next lines start with the values.

| IC50 [1] | IC50 [2] | SMILES |
| --- | --- | --- |
| 100 to 1000 nM | < 100 nM | CC(C)(C)C(=O)OCOP(=O)(OCOC(=O)C(C)(C)C)C(F)(F)c1ccc2sc(C(=O)N[C@H]3C[C@H]4C[C@H]4C[C@H]4CC[C@@H](C(=O)N5CC(c6cccnc6)C5)N4C3=O)cc2c1 [Compound 187, (((difluoro(2-(((3S,6S,7aR, 8aS,9aR)-5-oxo-3-(3-(pyridin-3-yl)azetidine-1-carbonyl)decahydro-1H-cyclopropa[d]pyrrolo[1,2-a]azocin-6-yl)carbamoyl)benzo[b]thiophen-5-yl)methyl)phosphoryl)bis(oxy)) bis(methylene) bis(2,2-dimethyl-propanoate)] |
| 100 to 1000 nM | < 100 nM | CCCC(=O)SCCOP(=O)(OCCSC(=O)CCC)C(F)(F)c1ccc2sc(C(=O)N[C@H]3C[C@@H]4C[C@@H]4C[C@H]4CC[C@@H](C(=O)N5CC(n6ccnc6)C5)N4C3=O)cc2c1 [Compound 188, S,S′-(((((2-(((3S,6S,7aS, 8aR,9aR)-3-(3-(1H-imidazol-1-yl)azetidine-1-carbonyl)-5-oxodecahydro-1H-cyclopropa[d]pyrrolo[1,2-a]azocin-6-yl)carbamoyl)benzo[b]thiophen-5-yl)difluoromethyl)phosphoryl)bis(oxy))bis(ethane-2,1-diyl)) dibutanethioate] |
| 1000 to 3000 nM | < 100 nM | CC(C)OC(=O)OCOP(=O)(OCOC(=O)OC(C)C)C(F)(F)c1ccc2sc(C(=O)N[C@H]3C[C@H]4C[C@H]4C[C@H]4CC[C@@H](C(=O)N5CC(c6cccnc6)C5)N4C3=O)cc2c1 [Compound 189, (((difluoro(2-(((3S,6S,7aR, 8aS,9aR)-5-oxo-3-(3-(pyridin-3-yl)azetidine-1-carbonyl)decahydro-1H-cyclopropa[d]pyrrolo[1,2-a]azocin-6-yl)carbamoyl)benzo[b]thiophen-5-yl)methyl)phosphoryl)bis(oxy)) bis(methylene) diisopropyl bis(carbonate)] |
| > 3000 nM | < 100 nM | COC1(c2nccn2C)CN(C(=O)[C@@H]2CC[C@@H]3C[C@@H]4C[C@@H]4C[C@H](NC(=O)c4cc5cc(C(F)(F)P(=O)(OCCSC(=O)C(C)(C)C)OCCSC(=O)C(C)(C)C)ccc5s4)C(=O)N32)C1 [Compound 202, S,S′-((((difluoro(2-(((3S,6S,7aR, 8aS,9aR)-3-(3-methoxy-3-(1-methyl-1H-imidazol-2-yl)azetidine-1-carbonyl)-5-oxodecahydro-1H-cyclopropa[d]pyrrolo[1,2-a]azocin-6-yl)carbamoyl)benzo[b]thiophen-5-yl)methyl)phosphoryl)bis(oxy))bis(ethane-2,1-diyl)) bis(2,2-dimethyl-propanethioate)] |
| 100 to 1000 nM | < 100 nM | CC(C)(C)C(=O)OCOP(=O)(OCOC(=O)C(C)(C)C)C(F)(F)c1ccc2sc(C(=O)N[C@H]3C[C@H]4C[C@H]4C[C@H]4CC[C@@H](C(=O)N5CC(c6c[nH]cn6)C5)N4C3=O)cc2c1 [Compound 203, ((((2-(((3S,6S,7aR, 8aS,9aR)-3-(3-(1H-imidazol-4-yl)azetidine-1-carbonyl)-5-oxodecahydro-1H-cyclopropa [d]pyrrolo[1,2-a]azocin-6-yl)carbamoyl)benzo[b]thiophen-5-yl)difluoromethyl)phosphoryl)bis(oxy)) bis(methylene) bis(2,2-dimethyl-propanoate)] |
| 100 to 1000 nM | < 100 nM | CC(C)(C)C(=O)OCOP(=O)(OCOC(=O)C(C)(C)C)C(F)(F)c1ccc2sc(C(=O)N[C@H]3C[C@@H]4C[C@@H]4C[C@H]4CC[C@@H](C(=O)N5CC(N6CCOCC6)C5)N4C3=O)cc2c1 [Compound 204, (((difluoro(2-(((3S,6S,7aS, 8aR,9aR)-3-(3-morpholino-azetidine-1-carbonyl)-5-oxodecahydro-1H-cyclopropa[d]pyrrolo[1,2-a]azocin-6-yl)carbamoyl)benzo[b]thiophen-5-yl)methyl)phosphoryl)bis(oxy)) bis(methylene) bis(2,2-dimethyl-propanoate)] |
| 100 to 1000 nM | < 100 nM | CC(C)(C)C(=O)OCOP(=O)(OCOC(=O)C(C)(C)C)C(F)(F)c1ccc2sc(C(=O)N[C@H]3C[C@@H]4C[C@@H]4C[C@H]4CC[C@@H](C(=O)N5CC(C6CCOCC6)C5)N4C3=O)cc2c1 [Compound 205, (((difluoro(2-(((3S,6S,7aS, 8aR,9aR)-5-oxo-3-(3-(tetrahydro-2H-pyran-4-yl)azetidine-1-carbonyl)decahydro-1H-cyclopropa[d]pyrrolo[1,2-a]azocin-6-yl)carbamoyl)benzo[b]thiophen-5-yl)methyl)phosphoryl)bis(oxy)) bis(methylene) bis(2,2-dimethyl-propanoate)] |
